Consider one compound from publication PMC4179164, “Ophiobolin A from Bipolaris oryzae Perturbs Motility and Membrane Integrities of Porcine Sperm and Induces Cell Death on Mammalian Somatic Cell Lines” (Toxins, 2014).

Converted amounts (≈) assume the structure as drawn.

Common to all, as to format: cell-based
Assay [1] has as its system boar spermatozoa. Description: Cell membrane permeability assay on static sperm cells (PI and calcein-AM staining). Conditions: 24 h, read-out: Toxic endpoint EC50, Permeability to PI on static cells. As to the method: (§1) This phenomenon may indicate that the cell still produce ATP and NADH in the cytoplasm after the OPA treatment, which differs from the effect caused by cation channel forming alamethicin, which depletes the sperm cells from motility, plasma membrane integrity as well as NADH and ATP production at similar concentrations. To confirm the effect of OPA on the plasma membrane permeability, the viability staining with propidium iodide (PI) and calcein-AM was performed after one day incubation at room temperature, (similar conditions as the JC-1 staining) where the EC50 value appeared at 1.6 μg mL^−1, over twice the concentrations that depolarized the mitochondria (Table 1).
Cell membrane permeability assay on motile sperm cells was inspected by staining with PI (Molecular Probes, Eugene, OR, USA) in sperm cells induced to swim by shaking at 37 °C. […] This suspension was incubated for 15 min at 37 °C in dark and measured using a microplate reader (Fluoroskan Ascent, Thermo Scientific, Vantaa, Finland) at excitation and emission wavelengths of 544 nm and 600 nm, respectively. For observing plasma membrane damage by PI staining frozen-thawed semen was used as a positive control (for mortality of 100%) representing the maximal fluorescence emitted by the cells permeable to PI and Dulbeco’s phosphate buffered saline was applied as background control (blank). […]

The subject of assay [2] is murine neuroblastoma (MNA) cells. Description: Somatic cell toxicity assay (resazurin reduction), MNA. Conditions: Mus musculus, read-out: IC50, cell proliferation. The procedure: (§2) Viability assays, based on resazurin-resorufin transformation, represent excellent correlation to generally used reference assays, such as formazan- and tritiated thymidine based methods. In our experiments, proliferating murine neuroblastoma (MNA), feline fetus lung (FFL) and porcine kidney (PK-15) cells were treated with OPA. […] These values were remarkably less than the concentrations causing sperm toxicity and motility inhibition.
(§3) Cytotoxicity against somatic cells was tested with feline fetus lung cells (FFL) cultivated as described by Andersson et al. and murine neuroblastoma cells (MNA) as described by Kulonen et al. as well as porcine kidney tubular epithelial cell line (PK-15), cultured as reported earlier. All somatic cell lines were maintained in an atmosphere of 95% air, 5% CO2 and 95% relative humidity at 37 °C on RPMI 1640 (complete medium) in a cell culture cabinet (Heracell 150i; Thermo Fisher Scientific, Vantaa, Finland). The detached cells were seeded onto 96 well microtiter plates and exposed to the purified OPA, the final concentration of which ranged from 48.8 ng mL^−1 to 25 μg mL^−1 containing 10 levels in methanol. […] Then, the plates were analyzed by a microtiter plate reader (Fluoroskan Ascent, Thermo Scientific, Vantaa, Finland) at the excitation and emission wavelengths of 544 nm and 590 nm, respectively. […]

In assay [3] the test system is feline fetus lung (FFL) cells. Description: Somatic cell toxicity assay (resazurin reduction), FFL. Particulars: Felis catus, read-out: IC50, cell proliferation. The procedure: as §2, §3
Assay [4] concerns boar spermatozoa. Description: Shivering tail beating induction in exposed sperm cells. As to the method:
as §1
Microscopic area containing shivering sperm cell is enlarged at top right of the picture.

Regarding `CC(C)=C[C@H]1C[C@H](C)[C@]2(CC[C@]3(C)C[C@H]4[C@H](C(=O)C[C@@]4(C)O)/C(C=O)=C\C[C@H]32)O1` [OPA, ophiobolin A], the EC50 is 1.6 µg/mL (≈ 3.99 µM) in the assay on boar spermatozoa [1] and 0.5 µg/mL (≈ 1.25 µM) with boar spermatozoa [4] (Spermatozoa, read-out: Toxic endpoint EC50, Shivering tail beating induction). For the same compound, the IC50 is below 0.0488 µg/mL in assay [2] and 0.0488 µg/mL (≈ 0.122 µM) in assay [3]. For the same compound, the “Concentration inducing shivering tail beating with depolarisation of mitochondria” value in the assay on boar spermatozoa [4] (exposure at room temperature) is below 1 µg/mL.
